Legend:
Test in all cases: SelectScreen kinase assay
Type in all cases: biochemical
CSK_h = biological target: T1, CSK_h (Homo sapiens, UniProt P41240); settings: KM ATP, read-out: % control
T1 construct: purchased Life Technologies (Invitrogen) SelectScreen, Z'-LYTE / Adapta
Summary of the method: (§1)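 A single 3 µM compound concentration was tested against each kinase in Z'-Lyte or Adapta assays, with ATP at KM, 10 or 100 µM as indicated, and activity normalised to DMSO-only wells.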

IKBKE_h = biological target: T2, IKBKE_h (Homo sapiens, UniProt Q14164); settings: KM ATP, read-out: % control
T2 construct: purchased Life Technologies (Invitrogen) SelectScreen, Z'-LYTE / Adapta
Summary of the method: as §1

Khs_1 = biological target: T3, Khs_1 (Homo sapiens, UniProt Q9Y4K4); settings: KM ATP, read-out: % control
T3 construct: purchased Life Technologies (Invitrogen) SelectScreen, Z'-LYTE / Adapta
Summary of the method: as §1

Rsk2_h = biological target: T4, Rsk2_h (Homo sapiens, UniProt P51812); settings: KM ATP, read-out: % control
T4 construct: purchased Life Technologies (Invitrogen) SelectScreen, Z'-LYTE / Adapta
Summary of the method: as §1

CAMK1_h = biological target: T5, CAMK1_h (Homo sapiens, UniProt Q14012); settings: 10 µM ATP, read-out: % control
T5 construct: purchased Life Technologies (Invitrogen) SelectScreen, Z'-LYTE / Adapta
Summary of the method: as §1

ErbB4_h = biological target: T6, ErbB4_h (Homo sapiens, UniProt Q15303); settings: KM ATP, read-out: % control
T6 construct: purchased Life Technologies (Invitrogen) SelectScreen, Z'-LYTE / Adapta
Summary of the method: as §1

CK1-epsilon_h = biological target: T7, CK1-epsilon_h (Homo sapiens, UniProt P49674); settings: KM ATP, read-out: % control
T7 construct: purchased Life Technologies (Invitrogen) SelectScreen, Z'-LYTE / Adapta
Summary of the method: as §1

PDGFR-alpha_h = PDGFR-alpha_h (Homo sapiens, UniProt P16234)
Summary of the method: as §1

FGFR2_h = biological target: T8, FGFR2_h (Homo sapiens, UniProt P21802); settings: KM ATP, read-out: % control
T8 construct: purchased Life Technologies (Invitrogen) SelectScreen, Z'-LYTE / Adapta
Summary of the method: as §1

JAK2-JH1-JH2_h = biological target: T9, JAK2-JH1-JH2_h (Homo sapiens, UniProt O60674); settings: KM ATP, read-out: % control
T9 construct: JAK2-JH1-JH2_h; purchased Life Technologies (Invitrogen) SelectScreen, Z'-LYTE / Adapta
Summary of the method: as §1

DYR1A_h = biological target: T10, DYR1A_h (Homo sapiens, UniProt Q13627); settings: KM ATP, read-out: % control
T10 construct: purchased Life Technologies (Invitrogen) SelectScreen, Z'-LYTE / Adapta
Summary of the method: as §1

EphA1_h = biological target: T11, EphA1_h (Homo sapiens, UniProt P21709); settings: KM ATP, read-out: % control
T11 construct: purchased Life Technologies (Invitrogen) SelectScreen, Z'-LYTE / Adapta
Summary of the method: as §1

MAPK1_h = biological target: T12, MAPK1_h (Homo sapiens, UniProt P28482); settings: KM ATP, read-out: % control
T12 construct: purchased Life Technologies (Invitrogen) SelectScreen, Z'-LYTE / Adapta
Summary of the method: as §1

LRRK2_h = biological target: T13, LRRK2_h (Homo sapiens, UniProt Q5S007); settings: KM ATP, read-out: % control
T13 construct: purchased Life Technologies (Invitrogen) SelectScreen, Z'-LYTE / Adapta
Summary of the method: as §1

PDGFR-alpha_V561D_h = biological target: T14, PDGFR-alpha_V561D_h (Homo sapiens, UniProt P16234, V561D); settings: KM ATP, read-out: % control
T14 construct: purchased Life Technologies (Invitrogen) SelectScreen, Z'-LYTE / Adapta
Summary of the method: as §1

CaMKII-alpha_h = biological target: T15, CaMKII-alpha_h (Homo sapiens, UniProt Q9UQM7); settings: KM ATP, read-out: % control
T15 construct: purchased Life Technologies (Invitrogen) SelectScreen, Z'-LYTE / Adapta
Summary of the method: as §1

Flt3_D835Y_h = biological target: T16, Flt3_D835Y_h (Homo sapiens, UniProt P36888, D835Y); settings: KM ATP, read-out: % control
T16 construct: purchased Life Technologies (Invitrogen) SelectScreen, Z'-LYTE / Adapta
Summary of the method: as §1

TrkC_h = biological target: T17, TrkC_h (Homo sapiens, UniProt Q16288); settings: KM ATP, read-out: % control
T17 construct: purchased Life Technologies (Invitrogen) SelectScreen, Z'-LYTE / Adapta
Summary of the method: as §1

NEK9_h = biological target: T18, NEK9_h (Homo sapiens, UniProt Q8TD19); settings: KM ATP, read-out: % control
T18 construct: purchased Life Technologies (Invitrogen) SelectScreen, Z'-LYTE / Adapta
Summary of the method: as §1

Abl_G250E_h = biological target: T19, Abl_G250E_h (Homo sapiens, UniProt P00519, G250E); settings: KM ATP, read-out: % control
T19 construct: purchased Life Technologies (Invitrogen) SelectScreen, Z'-LYTE / Adapta
Summary of the method: as §1

Plk3_h = biological target: T20, Plk3_h (Homo sapiens, UniProt Q9H4B4); settings: KM ATP, read-out: % control
T20 construct: purchased Life Technologies (Invitrogen) SelectScreen, Z'-LYTE / Adapta
Summary of the method: as §1

PKC-epsilon_h = biological target: T21, PKC-epsilon_h (Homo sapiens, UniProt Q02156); settings: KM ATP, read-out: % control
T21 construct: purchased Life Technologies (Invitrogen) SelectScreen, Z'-LYTE / Adapta
Summary of the method: as §1

HIPK2_h = biological target: T22, HIPK2_h (Homo sapiens, UniProt Q9H2X6); settings: KM ATP, read-out: % control
T22 construct: purchased Life Technologies (Invitrogen) SelectScreen, Z'-LYTE / Adapta
Summary of the method: as §1

NEK4_h = biological target: T23, NEK4_h (Homo sapiens, UniProt P51957); settings: KM ATP, read-out: % control
T23 construct: purchased Life Technologies (Invitrogen) SelectScreen, Z'-LYTE / Adapta
Summary of the method: as §1

GSK3-alpha_h = biological target: T24, GSK3-alpha_h (Homo sapiens, UniProt P49840); settings: KM ATP, read-out: % control
T24 construct: purchased Life Technologies (Invitrogen) SelectScreen, Z'-LYTE / Adapta
Summary of the method: as §1

JAK2-JH1-JH2_V617F_h = biological target: T25, JAK2-JH1-JH2_V617F_h (Homo sapiens, UniProt O60674, V617F); settings: KM ATP, read-out: % control
T25 construct: purchased Life Technologies (Invitrogen) SelectScreen, Z'-LYTE / Adapta
Summary of the method: as §1

Bmx_h = biological target: T26, Bmx_h (Homo sapiens, UniProt P51813); settings: KM ATP, read-out: % control
T26 construct: purchased Life Technologies (Invitrogen) SelectScreen, Z'-LYTE / Adapta
Summary of the method: as §1

PKA_h = biological target: T27, PKA_h (Homo sapiens, UniProt P17612); settings: KM ATP, read-out: % control
T27 construct: purchased Life Technologies (Invitrogen) SelectScreen, Z'-LYTE / Adapta
Summary of the method: as §1

Aurora-C_h = biological target: T28, Aurora-C_h (Homo sapiens, UniProt Q9UQB9); settings: KM ATP, read-out: % control
T28 construct: purchased Life Technologies (Invitrogen) SelectScreen, Z'-LYTE / Adapta
Summary of the method: as §1

p38-delta_h = biological target: T29, p38-delta_h (Homo sapiens, UniProt O15264); settings: KM ATP, read-out: % control
T29 construct: purchased Life Technologies (Invitrogen) SelectScreen, Z'-LYTE / Adapta
Summary of the method: as §1

Met_h = biological target: T30, Met_h (Homo sapiens, UniProt P08581); settings: KM ATP, read-out: % control
T30 construct: purchased Life Technologies (Invitrogen) SelectScreen, Z'-LYTE / Adapta
Summary of the method: as §1

EphA5_h = biological target: T31, EphA5_h (Homo sapiens, UniProt P54756); settings: KM ATP, read-out: % control
T31 construct: purchased Life Technologies (Invitrogen) SelectScreen, Z'-LYTE / Adapta
Summary of the method: as §1

Fer_h = biological target: T32, Fer_h (Homo sapiens, UniProt P16591); settings: KM ATP, read-out: % control
T32 construct: purchased Life Technologies (Invitrogen) SelectScreen, Z'-LYTE / Adapta
Summary of the method: as §1

Sequence of PDGFR-alpha_h (P16234 24-1089): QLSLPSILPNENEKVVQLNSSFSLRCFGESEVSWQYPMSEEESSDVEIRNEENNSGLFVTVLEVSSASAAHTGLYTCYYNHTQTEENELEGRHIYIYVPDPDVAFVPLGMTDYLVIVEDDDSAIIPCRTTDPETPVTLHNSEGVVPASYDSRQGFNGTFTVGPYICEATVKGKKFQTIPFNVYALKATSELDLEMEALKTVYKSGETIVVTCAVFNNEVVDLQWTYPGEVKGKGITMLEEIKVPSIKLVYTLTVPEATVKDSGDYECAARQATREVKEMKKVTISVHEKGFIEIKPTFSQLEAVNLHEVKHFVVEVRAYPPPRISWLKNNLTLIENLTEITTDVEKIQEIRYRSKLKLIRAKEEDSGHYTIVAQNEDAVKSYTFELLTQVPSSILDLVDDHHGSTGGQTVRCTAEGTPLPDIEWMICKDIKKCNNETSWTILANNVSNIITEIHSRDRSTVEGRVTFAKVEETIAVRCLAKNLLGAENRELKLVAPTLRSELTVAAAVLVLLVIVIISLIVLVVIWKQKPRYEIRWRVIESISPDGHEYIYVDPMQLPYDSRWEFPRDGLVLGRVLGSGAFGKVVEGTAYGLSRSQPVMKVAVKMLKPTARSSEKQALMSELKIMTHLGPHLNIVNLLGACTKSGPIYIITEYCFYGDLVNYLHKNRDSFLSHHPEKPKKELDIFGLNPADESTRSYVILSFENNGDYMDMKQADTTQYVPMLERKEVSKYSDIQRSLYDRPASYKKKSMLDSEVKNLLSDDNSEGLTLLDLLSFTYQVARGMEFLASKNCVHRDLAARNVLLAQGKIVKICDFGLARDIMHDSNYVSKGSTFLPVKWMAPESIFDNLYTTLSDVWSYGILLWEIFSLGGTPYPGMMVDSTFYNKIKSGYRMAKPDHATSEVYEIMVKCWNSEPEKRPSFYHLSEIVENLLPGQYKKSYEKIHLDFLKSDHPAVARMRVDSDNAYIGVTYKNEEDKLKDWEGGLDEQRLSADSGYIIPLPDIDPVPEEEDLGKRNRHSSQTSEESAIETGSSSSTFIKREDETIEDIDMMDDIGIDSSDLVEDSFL
T17 sequence (Q16288 32-839): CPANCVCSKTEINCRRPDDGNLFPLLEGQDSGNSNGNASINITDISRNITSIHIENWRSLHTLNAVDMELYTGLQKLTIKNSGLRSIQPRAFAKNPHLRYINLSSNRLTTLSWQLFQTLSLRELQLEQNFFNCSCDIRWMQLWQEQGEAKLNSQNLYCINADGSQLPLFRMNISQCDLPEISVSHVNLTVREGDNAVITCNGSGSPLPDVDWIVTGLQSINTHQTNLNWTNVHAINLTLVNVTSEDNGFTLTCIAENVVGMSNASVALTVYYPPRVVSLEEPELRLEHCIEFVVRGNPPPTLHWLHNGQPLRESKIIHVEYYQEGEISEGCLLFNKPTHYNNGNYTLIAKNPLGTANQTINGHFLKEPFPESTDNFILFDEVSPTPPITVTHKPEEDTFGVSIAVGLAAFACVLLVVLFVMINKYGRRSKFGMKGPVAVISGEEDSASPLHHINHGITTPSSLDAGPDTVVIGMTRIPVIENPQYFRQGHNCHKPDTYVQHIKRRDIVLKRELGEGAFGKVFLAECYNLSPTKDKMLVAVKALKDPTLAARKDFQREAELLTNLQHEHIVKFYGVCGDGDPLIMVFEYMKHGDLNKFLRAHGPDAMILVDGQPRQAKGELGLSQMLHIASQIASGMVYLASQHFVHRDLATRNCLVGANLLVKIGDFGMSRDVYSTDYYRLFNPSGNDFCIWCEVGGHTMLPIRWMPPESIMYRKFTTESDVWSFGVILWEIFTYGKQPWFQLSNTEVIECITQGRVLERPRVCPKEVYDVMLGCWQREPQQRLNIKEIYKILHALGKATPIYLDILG
T20 sequence (Q9H4B4 whole entry): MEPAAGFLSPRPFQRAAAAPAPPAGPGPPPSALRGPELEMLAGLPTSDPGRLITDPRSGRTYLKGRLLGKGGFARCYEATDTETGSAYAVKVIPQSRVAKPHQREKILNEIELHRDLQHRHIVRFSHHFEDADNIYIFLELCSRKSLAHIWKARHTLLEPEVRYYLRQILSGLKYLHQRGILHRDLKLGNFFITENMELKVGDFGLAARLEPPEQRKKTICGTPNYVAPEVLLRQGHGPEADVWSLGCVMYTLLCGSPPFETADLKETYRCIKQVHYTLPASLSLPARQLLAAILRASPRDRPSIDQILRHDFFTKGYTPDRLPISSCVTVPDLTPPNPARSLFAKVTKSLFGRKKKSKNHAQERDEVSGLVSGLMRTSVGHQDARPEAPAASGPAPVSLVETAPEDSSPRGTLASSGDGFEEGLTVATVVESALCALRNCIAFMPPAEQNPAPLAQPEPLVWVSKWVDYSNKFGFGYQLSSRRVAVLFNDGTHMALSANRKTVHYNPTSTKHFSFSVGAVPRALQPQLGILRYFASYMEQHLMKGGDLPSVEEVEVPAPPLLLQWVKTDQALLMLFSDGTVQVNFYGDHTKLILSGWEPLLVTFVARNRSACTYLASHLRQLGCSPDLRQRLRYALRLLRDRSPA
T26 sequence (P51813 whole entry): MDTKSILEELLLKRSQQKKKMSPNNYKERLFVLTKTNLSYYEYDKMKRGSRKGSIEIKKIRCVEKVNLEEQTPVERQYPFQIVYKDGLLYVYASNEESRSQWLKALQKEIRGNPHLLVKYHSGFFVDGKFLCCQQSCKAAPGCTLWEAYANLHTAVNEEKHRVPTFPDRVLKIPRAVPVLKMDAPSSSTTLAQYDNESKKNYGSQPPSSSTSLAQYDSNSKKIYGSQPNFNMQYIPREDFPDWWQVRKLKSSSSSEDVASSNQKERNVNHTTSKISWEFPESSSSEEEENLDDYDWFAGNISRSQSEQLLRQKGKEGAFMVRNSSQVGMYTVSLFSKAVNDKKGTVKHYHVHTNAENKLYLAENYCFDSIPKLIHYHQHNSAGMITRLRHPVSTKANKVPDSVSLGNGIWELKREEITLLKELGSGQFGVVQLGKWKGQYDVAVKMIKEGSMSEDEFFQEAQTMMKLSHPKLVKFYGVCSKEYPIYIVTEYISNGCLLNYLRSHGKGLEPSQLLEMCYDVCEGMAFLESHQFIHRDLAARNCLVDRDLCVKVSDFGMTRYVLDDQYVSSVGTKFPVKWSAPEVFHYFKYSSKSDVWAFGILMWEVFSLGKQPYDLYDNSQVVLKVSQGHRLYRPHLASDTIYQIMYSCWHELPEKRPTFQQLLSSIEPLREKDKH
T21 sequence (Q02156 whole entry): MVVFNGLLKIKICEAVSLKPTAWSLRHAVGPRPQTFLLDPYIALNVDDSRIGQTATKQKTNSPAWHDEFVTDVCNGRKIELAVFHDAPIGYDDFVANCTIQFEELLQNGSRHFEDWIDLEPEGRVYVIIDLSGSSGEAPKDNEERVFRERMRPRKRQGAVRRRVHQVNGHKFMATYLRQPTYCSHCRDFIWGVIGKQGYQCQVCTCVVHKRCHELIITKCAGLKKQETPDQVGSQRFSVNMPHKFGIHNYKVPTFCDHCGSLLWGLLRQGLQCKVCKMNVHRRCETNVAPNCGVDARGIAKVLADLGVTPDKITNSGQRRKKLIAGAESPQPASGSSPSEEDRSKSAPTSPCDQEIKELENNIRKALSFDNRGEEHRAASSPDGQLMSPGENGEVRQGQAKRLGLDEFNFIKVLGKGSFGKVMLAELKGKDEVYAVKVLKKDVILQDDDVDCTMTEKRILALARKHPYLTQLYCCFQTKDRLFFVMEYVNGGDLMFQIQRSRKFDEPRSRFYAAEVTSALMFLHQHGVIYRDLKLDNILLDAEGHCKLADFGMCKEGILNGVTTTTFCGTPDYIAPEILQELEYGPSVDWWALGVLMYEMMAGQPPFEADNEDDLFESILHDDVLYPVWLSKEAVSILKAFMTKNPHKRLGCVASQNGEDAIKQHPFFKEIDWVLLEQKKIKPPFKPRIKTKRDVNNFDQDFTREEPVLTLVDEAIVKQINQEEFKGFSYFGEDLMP
T2 sequence (Q14164 whole entry): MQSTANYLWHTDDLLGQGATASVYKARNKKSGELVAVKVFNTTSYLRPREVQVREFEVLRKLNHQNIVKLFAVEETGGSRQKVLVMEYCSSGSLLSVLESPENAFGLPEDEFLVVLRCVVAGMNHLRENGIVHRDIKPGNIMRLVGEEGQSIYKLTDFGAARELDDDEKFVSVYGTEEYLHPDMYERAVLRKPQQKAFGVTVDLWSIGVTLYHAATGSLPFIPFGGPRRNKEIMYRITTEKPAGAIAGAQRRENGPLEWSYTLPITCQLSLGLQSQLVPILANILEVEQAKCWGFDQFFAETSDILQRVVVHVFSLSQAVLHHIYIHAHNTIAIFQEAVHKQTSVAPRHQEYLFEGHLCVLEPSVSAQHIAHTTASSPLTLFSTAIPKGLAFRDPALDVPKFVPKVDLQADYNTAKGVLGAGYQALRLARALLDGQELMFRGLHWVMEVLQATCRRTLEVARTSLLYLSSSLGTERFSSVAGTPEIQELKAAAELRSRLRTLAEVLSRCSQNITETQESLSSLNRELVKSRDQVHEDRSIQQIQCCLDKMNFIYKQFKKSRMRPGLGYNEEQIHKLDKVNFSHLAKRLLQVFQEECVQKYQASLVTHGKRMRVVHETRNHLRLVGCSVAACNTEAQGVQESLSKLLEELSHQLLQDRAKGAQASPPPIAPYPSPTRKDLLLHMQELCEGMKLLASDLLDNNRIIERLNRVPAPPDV
T12 sequence (P28482 whole entry): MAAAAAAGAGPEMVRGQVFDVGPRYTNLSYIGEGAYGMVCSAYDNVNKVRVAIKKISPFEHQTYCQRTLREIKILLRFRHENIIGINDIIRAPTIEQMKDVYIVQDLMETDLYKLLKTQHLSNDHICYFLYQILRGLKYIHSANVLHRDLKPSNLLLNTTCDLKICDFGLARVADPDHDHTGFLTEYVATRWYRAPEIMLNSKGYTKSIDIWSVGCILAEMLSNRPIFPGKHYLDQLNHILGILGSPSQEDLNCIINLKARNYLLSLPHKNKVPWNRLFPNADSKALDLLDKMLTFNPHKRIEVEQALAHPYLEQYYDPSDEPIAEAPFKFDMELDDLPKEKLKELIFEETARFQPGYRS
T14 sequence (P16234 24-1089 V561D): as the sequence (P16234 24-1089) above, with V538D counted along it

c1cc(CC2CCOCC2)n2nc(Nc3ccc4c(NC5CCOCC5)n[nH]c4c3)nc2c1 [CC-509, [3-(2H-3,4,5,6-tetrahydropyran-4-ylamino)(1H-indazol-6-yl)][5-(2H-3,4,5,6-tetrahydropyran-4-ylmethyl)(2H-1,2,4-triazolo[1,5-a]pyridin-2-yl)]amine]
remaining activity at 3 µM (CSK_h): 70%
remaining activity at 3 µM (IKBKE_h): 67%
remaining activity at 3 µM (Khs_1): 81%
remaining activity at 3 µM (Rsk2_h): 49%
remaining activity at 3 µM (CAMK1_h): 86%
remaining activity at 3 µM (ErbB4_h): 91%
remaining activity at 3 µM (CK1-epsilon_h): 89%
remaining activity at 3 µM (PDGFR-alpha_h; 3 µM, KM ATP, read-out: % control): 4%
IC50 (PDGFR-alpha_h; 10-point dose-response, commercial vendor): 204 nM
remaining activity at 3 µM (FGFR2_h): 46%
remaining activity at 3 µM (JAK2-JH1-JH2_h): 4%
remaining activity at 3 µM (DYR1A_h): 99%
remaining activity at 3 µM (EphA1_h): 21%
remaining activity at 3 µM (MAPK1_h): 94%
remaining activity at 3 µM (LRRK2_h): 3%
remaining activity at 3 µM (PDGFR-alpha_V561D_h): 0%
remaining activity at 3 µM (CaMKII-alpha_h): 80%
remaining activity at 3 µM (Flt3_D835Y_h): -1%
remaining activity at 3 µM (TrkC_h): 25%
remaining activity at 3 µM (NEK9_h): 95%
remaining activity at 3 µM (Abl_G250E_h): 29%
remaining activity at 3 µM (Plk3_h): 88%
remaining activity at 3 µM (PKC-epsilon_h): 100%
remaining activity at 3 µM (HIPK2_h): 96%
remaining activity at 3 µM (NEK4_h): 78%
remaining activity at 3 µM (GSK3-alpha_h): 91%
remaining activity at 3 µM (JAK2-JH1-JH2_V617F_h): 8%
remaining activity at 3 µM (Bmx_h): 52%
remaining activity at 3 µM (PKA_h): 93%
remaining activity at 3 µM (Aurora-C_h): 18%
remaining activity at 3 µM (p38-delta_h): 82%
remaining activity at 3 µM (Met_h): 66%
remaining activity at 3 µM (EphA5_h): 89%
remaining activity at 3 µM (Fer_h): 40%
